The record followed here is patent US20240239863A1, “GIP RECEPTOR AGONIST AND USE THEREOF” (HANGZHOU ZHONGMEIHUADONG PHARMACEUTICAL CO., LTD., priority 2022, published 2024).

Structures are written as SMILES. Non-standard residues stand in square brackets, D forms with d. Residues, ends and D or L forms follow the SMILES beside them. Aib = CC(C)(N)C(=O)O

The experiment deals with hGLP-1R (Homo sapiens, UniProt P43220). Briefly: Cell agonistic activity at GLP-1 receptor (Example 7). The experiment is classed as cell-based.
Sequence of hGLP-1R (P43220 24-463): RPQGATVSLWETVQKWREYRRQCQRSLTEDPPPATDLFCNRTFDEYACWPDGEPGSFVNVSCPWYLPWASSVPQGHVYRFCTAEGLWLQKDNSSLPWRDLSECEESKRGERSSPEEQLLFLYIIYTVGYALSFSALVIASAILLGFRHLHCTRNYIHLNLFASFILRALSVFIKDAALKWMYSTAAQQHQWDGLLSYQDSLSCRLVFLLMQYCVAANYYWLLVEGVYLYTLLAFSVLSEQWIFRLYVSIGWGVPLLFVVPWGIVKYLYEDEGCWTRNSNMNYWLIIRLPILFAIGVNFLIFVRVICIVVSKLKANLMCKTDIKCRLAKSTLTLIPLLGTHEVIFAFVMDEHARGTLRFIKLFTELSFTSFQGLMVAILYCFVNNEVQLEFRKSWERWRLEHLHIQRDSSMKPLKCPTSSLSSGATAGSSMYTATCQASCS
On to `CC[C@H](C)[C@H](NC(=O)[C@H](CO)NC(=O)[C@H](Cc1ccc(O)cc1)NC(=O)[C@H](CC(=O)O)NC(=O)[C@H](CO)NC(=O)[C@@H](NC(=O)[C@H](Cc1ccccc1)NC(=O)[C@@H](NC(=O)CNC(=O)[C@H](CCC(=O)O)NC(=O)C(C)(C)NC(=O)[C@@H](N)Cc1ccc(O)cc1)[C@@H](C)O)[C@@H](C)CC)C(=O)N[C@@H](C)C(=O)N[C@@H](CC(C)C)C(=O)N[C@@H](CC(=O)O)C(=O)N[C@@H](CCCNC(=N)N)C(=O)N[C@H](C(=O)N[C@@H](Cc1c[nH]cn1)C(=O)N[C@@H](CCC(N)=O)C(=O)N[C@@H](CCC(N)=O)C(=O)N[C@@H](CC(=O)O)C(=O)N[C@@H](Cc1ccccc1)C(=O)N[C@H](C(=O)N[C@@H](CCCCN)C(=O)N[C@@H](Cc1c[nH]c2ccccc12)C(=O)N[C@@H](CC(C)C)C(=O)N[C@@H](CC(C)C)C(=O)N[C@@H](C)C(=O)N[C@@H](CCC(N)=O)C(=O)N[C@@H](CCCNC(=N)N)C(=O)NCC(=O)O)C(C)C)[C@@H](C)CC` [Sequence 13] (H-Y[Aib]EGTFISDYSIALDRIHQQDFVKWLLAQRG-OH; N-terminus and C-terminus assumed), for which the EC50 was over 100 pM. With `CC[C@H](C)[C@H](NC(=O)[C@H](CO)NC(=O)[C@H](Cc1ccc(O)cc1)NC(=O)[C@H](CC(=O)O)NC(=O)[C@H](CO)NC(=O)[C@@H](NC(=O)[C@H](Cc1ccccc1)NC(=O)[C@@H](NC(=O)CNC(=O)[C@H](CCC(=O)O)NC(=O)C(C)(C)NC(=O)[C@@H](N)Cc1ccc(O)cc1)[C@@H](C)O)[C@@H](C)CC)C(=O)N[C@@H](C)C(=O)N[C@@H](CC(C)C)C(=O)N[C@@H](CC(=O)O)C(=O)N[C@@H](CCCNC(=N)N)C(=O)N[C@@H](CC(C)C)C(=O)N[C@@H](Cc1c[nH]cn1)C(=O)N[C@@H](CCC(N)=O)C(=O)N[C@@H](CCC(=O)O)C(=O)N[C@@H](CC(=O)O)C(=O)N[C@@H](Cc1ccccc1)C(=O)N[C@H](C(=O)N[C@@H](CCCCN)C(=O)N[C@@H](Cc1c[nH]c2ccccc12)C(=O)N[C@@H](CC(C)C)C(=O)N[C@@H](CC(C)C)C(=O)N[C@@H](C)C(=O)N[C@@H](CCC(N)=O)C(=O)N[C@@H](CCCNC(=N)N)C(=O)NCC(=O)O)C(C)C` [Sequence 15] (H-Y[Aib]EGTFISDYSIALDRLHQEDFVKWLLAQRG-OH; N-terminus and C-terminus assumed) the figure was over 100 pM; with `CC[C@H](C)[C@H](NC(=O)[C@H](CO)NC(=O)[C@H](Cc1ccc(O)cc1)NC(=O)[C@H](CC(=O)O)NC(=O)[C@H](CO)NC(=O)[C@@H](NC(=O)[C@H](Cc1ccccc1)NC(=O)[C@@H](NC(=O)CNC(=O)[C@H](CCC(=O)O)NC(=O)C(C)(C)NC(=O)[C@@H](N)Cc1ccc(O)cc1)[C@@H](C)O)[C@@H](C)CC)C(=O)N[C@@H](C)C(=O)N[C@@H](CC(C)C)C(=O)N[C@@H](CC(=O)O)C(=O)N[C@@H](CCC(=O)O)C(=O)N[C@H](C(=O)N[C@@H](Cc1c[nH]cn1)C(=O)N[C@@H](CCC(N)=O)C(=O)N[C@@H](CCCCN)C(=O)N[C@@H](CC(=O)O)C(=O)N[C@@H](Cc1ccccc1)C(=O)N[C@H](C(=O)N[C@@H](CC(N)=O)C(=O)N[C@@H](Cc1c[nH]c2ccccc12)C(=O)N[C@@H](CC(C)C)C(=O)N[C@@H](CC(C)C)C(=O)N[C@@H](C)C(=O)N[C@@H](CCC(N)=O)C(=O)N[C@@H](CCCNC(=N)N)C(=O)NCC(=O)O)C(C)C)[C@@H](C)CC` [Sequence 5] (H-Y[Aib]EGTFISDYSIALDEIHQKDFVNWLLAQRG-OH; N-terminus and C-terminus assumed), over 100 pM; with `CC[C@H](C)[C@H](NC(=O)[C@H](CO)NC(=O)[C@H](Cc1ccc(O)cc1)NC(=O)[C@H](CC(=O)O)NC(=O)[C@H](CO)NC(=O)[C@@H](NC(=O)[C@H](Cc1ccccc1)NC(=O)[C@@H](NC(=O)CNC(=O)[C@H](CCC(=O)O)NC(=O)C(C)(C)NC(=O)[C@@H](N)Cc1ccc(O)cc1)[C@@H](C)O)[C@@H](C)CC)C(=O)N[C@@H](C)C(=O)N[C@@H](CC(C)C)C(=O)N[C@@H](CC(=O)O)C(=O)N[C@@H](CCCCN)C(=O)N[C@@H](CC(C)C)C(=O)N[C@@H](Cc1c[nH]cn1)C(=O)N[C@@H](CCC(N)=O)C(=O)N[C@@H](CCC(=O)O)C(=O)N[C@@H](CC(=O)O)C(=O)N[C@@H](Cc1ccccc1)C(=O)N[C@H](C(=O)N[C@@H](CC(N)=O)C(=O)N[C@@H](Cc1c[nH]c2ccccc12)C(=O)N[C@@H](CC(C)C)C(=O)N[C@@H](CC(C)C)C(=O)N[C@@H](C)C(=O)N[C@@H](CCC(N)=O)C(=O)N[C@@H](CCCNC(=N)N)C(=O)NCC(=O)O)C(C)C` [Sequence 10] (H-Y[Aib]EGTFISDYSIALDKLHQEDFVNWLLAQRG-OH; N-terminus and C-terminus assumed), over 100 pM. With `CC[C@H](C)[C@H](NC(=O)[C@H](CO)NC(=O)[C@H](Cc1ccc(O)cc1)NC(=O)[C@H](CC(=O)O)NC(=O)[C@H](CO)NC(=O)[C@@H](NC(=O)[C@H](Cc1ccccc1)NC(=O)[C@@H](NC(=O)CNC(=O)[C@H](CCC(=O)O)NC(=O)C(C)(C)NC(=O)[C@@H](N)Cc1ccc(O)cc1)[C@@H](C)O)[C@@H](C)CC)C(=O)N[C@@H](C)C(=O)N[C@@H](CC(C)C)C(=O)N[C@@H](CC(=O)O)C(=O)N[C@@H](CCCCN)C(=O)N[C@H](C(=O)N[C@@H](Cc1c[nH]cn1)C(=O)N[C@@H](CCC(N)=O)C(=O)N[C@@H](CCC(=O)O)C(=O)N[C@@H](CC(=O)O)C(=O)N[C@@H](Cc1ccccc1)C(=O)N[C@H](C(=O)N[C@@H](CCCCN)C(=O)N[C@@H](Cc1c[nH]c2ccccc12)C(=O)N[C@@H](CC(C)C)C(=O)N[C@@H](CC(C)C)C(=O)N[C@@H](C)C(=O)N[C@@H](CCC(N)=O)C(=O)N[C@@H](CCCCN)C(=O)NCC(=O)O)C(C)C)[C@@H](C)CC` [Sequence 3] (H-Y[Aib]EGTFISDYSIALDKIHQEDFVKWLLAQKG-OH; N-terminus and C-terminus assumed), the EC50 is over 100 pM.

Regarding `CC[C@H](C)[C@H](NC(=O)[C@H](CCC(=O)O)NC(=O)[C@H](CC(=O)O)NC(=O)[C@H](CC(C)C)NC(=O)C(C)(C)NC(=O)[C@@H](NC(=O)[C@H](CO)NC(=O)[C@H](Cc1ccc(O)cc1)NC(=O)[C@H](CC(=O)O)NC(=O)[C@H](CO)NC(=O)[C@@H](NC(=O)[C@H](Cc1ccccc1)NC(=O)[C@@H](NC(=O)CNC(=O)[C@H](CCC(=O)O)NC(=O)C(C)(C)NC(=O)[C@@H](N)Cc1ccc(O)cc1)[C@@H](C)O)[C@@H](C)CC)[C@@H](C)CC)C(=O)N[C@@H](Cc1c[nH]cn1)C(=O)N[C@@H](CCC(N)=O)C(=O)N[C@@H](CCCCN)C(=O)N[C@@H](CC(=O)O)C(=O)N[C@@H](Cc1ccccc1)C(=O)N[C@H](C(=O)N[C@@H](CCCCN)C(=O)N[C@@H](Cc1c[nH]c2ccccc12)C(=O)N[C@@H](CC(C)C)C(=O)N[C@@H](CC(C)C)C(=O)N[C@@H](C)C(=O)N[C@@H](CCC(N)=O)C(=O)N[C@@H](CCCCN)C(=O)NCC(=O)O)C(C)C` [Sequence 2] (H-Y[Aib]EGTFISDYSI[Aib]LDEIHQKDFVKWLLAQKG-OH; N-terminus and C-terminus assumed), the EC50 is over 100 pM.

As to `CC[C@H](C)[C@H](NC(=O)[C@H](CO)NC(=O)[C@H](Cc1ccc(O)cc1)NC(=O)[C@H](CC(=O)O)NC(=O)[C@H](CO)NC(=O)[C@@H](NC(=O)[C@H](Cc1ccccc1)NC(=O)[C@@H](NC(=O)CNC(=O)[C@H](CCC(=O)O)NC(=O)C(C)(C)NC(=O)[C@@H](N)Cc1ccc(O)cc1)[C@@H](C)O)[C@@H](C)CC)C(=O)N[C@@H](C)C(=O)N[C@@H](CC(C)C)C(=O)N[C@@H](CC(=O)O)C(=O)N[C@@H](CCCNC(=N)N)C(=O)N[C@@H](CC(C)C)C(=O)N[C@@H](Cc1c[nH]cn1)C(=O)N[C@@H](CCC(N)=O)C(=O)N[C@@H](CCC(N)=O)C(=O)N[C@@H](CC(=O)O)C(=O)N[C@@H](Cc1ccccc1)C(=O)N[C@H](C(=O)N[C@@H](CCCCN)C(=O)N[C@@H](Cc1c[nH]c2ccccc12)C(=O)N[C@@H](CC(C)C)C(=O)N[C@@H](CC(C)C)C(=O)N[C@@H](C)C(=O)N[C@@H](CCC(N)=O)C(=O)N[C@@H](CCCNC(=N)N)C(=O)NCC(=O)O)C(C)C` [Sequence 17] (H-Y[Aib]EGTFISDYSIALDRLHQQDFVKWLLAQRG-OH; N-terminus and C-terminus assumed), the EC50 is over 100 pM. In turn, `CC[C@H](C)[C@H](NC(=O)[C@H](CO)NC(=O)[C@H](Cc1ccc(O)cc1)NC(=O)[C@H](CC(=O)O)NC(=O)[C@H](CO)NC(=O)[C@@H](NC(=O)[C@H](Cc1ccccc1)NC(=O)[C@@H](NC(=O)CNC(=O)[C@H](CCC(=O)O)NC(=O)C(C)(C)NC(=O)[C@@H](N)Cc1ccc(O)cc1)[C@@H](C)O)[C@@H](C)CC)C(=O)N[C@@H](C)C(=O)N[C@@H](CC(C)C)C(=O)N[C@@H](CC(=O)O)C(=O)N[C@@H](CCCCN)C(=O)N[C@@H](CC(C)C)C(=O)N[C@@H](Cc1c[nH]cn1)C(=O)N[C@@H](CCC(N)=O)C(=O)N[C@@H](CCC(N)=O)C(=O)N[C@@H](CC(=O)O)C(=O)N[C@@H](Cc1ccccc1)C(=O)N[C@H](C(=O)N[C@@H](CC(N)=O)C(=O)N[C@@H](Cc1c[nH]c2ccccc12)C(=O)N[C@@H](CC(C)C)C(=O)N[C@@H](CC(C)C)C(=O)N[C@@H](C)C(=O)N[C@@H](CCC(N)=O)C(=O)N[C@@H](CCCNC(=N)N)C(=O)NCC(=O)O)C(C)C` [Sequence 8] (H-Y[Aib]EGTFISDYSIALDKLHQQDFVNWLLAQRG-OH; N-terminus and C-terminus assumed) returned a concentration giving a half-maximal response (EC50) of over 100 pM.

Consider `CC[C@H](C)[C@H](NC(=O)[C@H](CO)NC(=O)[C@H](Cc1ccc(O)cc1)NC(=O)[C@H](CC(=O)O)NC(=O)[C@H](CO)NC(=O)[C@@H](NC(=O)[C@H](Cc1ccccc1)NC(=O)[C@@H](NC(=O)CNC(=O)[C@H](CCC(=O)O)NC(=O)C(C)(C)NC(=O)[C@@H](N)Cc1ccc(O)cc1)[C@@H](C)O)[C@@H](C)CC)C(=O)N[C@@H](C)C(=O)N[C@@H](CC(C)C)C(=O)N[C@@H](CC(=O)O)C(=O)N[C@@H](CCCNC(=N)N)C(=O)N[C@H](C(=O)N[C@@H](Cc1c[nH]cn1)C(=O)N[C@@H](CCC(N)=O)C(=O)N[C@@H](CCC(=O)O)C(=O)N[C@@H](CC(=O)O)C(=O)N[C@@H](Cc1ccccc1)C(=O)N[C@H](C(=O)N[C@@H](CCCCN)C(=O)N[C@@H](Cc1c[nH]c2ccccc12)C(=O)N[C@@H](CC(C)C)C(=O)N[C@@H](CC(C)C)C(=O)N[C@@H](C)C(=O)N[C@@H](CCC(N)=O)C(=O)N[C@@H](CCCNC(=N)N)C(=O)NCC(=O)O)C(C)C)[C@@H](C)CC` [Sequence 11] (H-Y[Aib]EGTFISDYSIALDRIHQEDFVKWLLAQRG-OH; N-terminus and C-terminus assumed), for which the EC50 is over 100 pM.

The EC50 is the concentration at which the effect is half-maximal. The low end stands for greater potency, the high end for weaker potency.
